# Columns and labels:
# [1] = system: Epidermal equivalents (normal, human-derived epidermal keratinocytes); assay: Protection against UV induced loss of viability (LDH release); format: cell-based
# Protocol: (§1) Cell Culture • Epidermal equivalents (4.0 cm^2) were purchased from SkinEthic (Nice, France). Each equivalent served as a multilayered model of the epidermis consisting of normal, human-derived epidermal keratinocytes. Equivalents were cultured in a defined hydrocortisone and phenol red free medium supplied from SkinEthic. Instruments • Kontron (Switzerland) HPLC system. 425 pump, 430 detector, 460 automatic injector and 450 data analysis system. Column: LiChroCART®250-4, RP-select B (5 μm), Merck catalog no. […]
# (§2) Twenty four hours post irradiation, the culture medium was collected from the treated epidermal equivalents and evaluated for IL-1α release levels using a commercially available ELISA kit. Cell viability was determined immediately post irradiation using LDH leakage measurments.
# (§3) Epidermal Equivalents were purchased from SkinEthic (Nice, France) and cultured in phenol free, hydrocortisone free media. […] Forty-eight hours post irradiation, the medium beneath each equivalent was collected and analyzed for secreted IL-1α by ELISA (Endogen). LDH level (Boehringer Mannheim) was measured immediately post irradiation and after 48 hours to determine the effect of treatment and UV exposure on cell viability. […]
# [2] = system: Epidermal equivalents (normal, human-derived epidermal keratinocytes); assay: Protection against UV induced IL-1α release; format: cell-based; details: at 0.01%, UV irradiation
# Protocol: as §1, §2, §3
# [3] = Partition of lycopene in tri-phase system (soya oil / water / egg PC SUV); format: physicochemical; details: for Kp Lip/Oil: partition coefficient liposome/oil, liposomes 10% by weight; for Liposome/oil: ratio of lycopene in liposomal phase to oil phase; for Insoluble lycopene / lycopene concentration, Liposomal phase / lycopene concentration, Oil phase: soya oil / water / egg PC SUV, highest lycopene level; for lycopene concentration, Liposomal phase / lycopene concentration, Oil phase: mixed 2 hours at room temperature
# Protocol: The partition coefficient of lycopene in tri-phase systems was also evaluated. Tri-phase systems may serve for the determination of availability of the lycopene into biological membranes. The system used herein was composed from […]: soya oil in which the lycopene was present and water in which liposomes (10% by weight) in the form of small unilamellar vesicles (SUV) composed of pure egg phosphatidyl choline are present as the third phase.
# The small unilamellar liposomes (SUV) composed of pure lipid (Ludwigshafen, Germany) egg phosphatidylcholine (egg PC) of an 80 nm were prepared and characterized as described by Haran et al. [Haran G. et al. Biochim. Biophys. Acta 1151:201–215 (1993)]. SUV egg PC size was ˜80 nm. The partition coefficient in the three phase system was performed at three different levels of lycopene—low, medium and high amounts, using crystalline lycopene (originated from fungi), 92% powder (LycoRed), 75% powder lycopene (LycoRed) and oleoresin (containing 6.06% by weight of lycopene). In case of the highest level, lycopene from tomato concentrate (containing 0.073% lycopene) was also evaluated.
# Preparation of the three phase systems included the following steps; first, lycopene was dispersed in soya oil (4 ml) by ultrasonic irradiation in an ultrasonic bath (35 kHz, 285W). Then, the precipitate was removed, aliquots of the oil were diluted in isopropanol with ratio ranging from 1:10 to 1:100 and the concentration of lycopene in oil phase was determined.
# Then, to soya oil saturated with lycopene (1.5 ml) egg PC SUV in water (1.5 ml) were added to form the three phase system. The system was then mixed for 2 hours at room temperature using a flask shaker (A5-6021, St. John Associate Inc.), after which aliquots of the oil phase and the liposomal aqueous phase were removed.
# In particular, the aqueous phase was extracted using heptane into which more than 98% of the lycopene was extracted. This extract was evaporated to dryness and the residue was dissolved in 200 μl isopropanol and analyzed by HPLC to determine the amount of lycopene present in the liquid and oil phase.
# The concentration of lycopene in the liposome phase was calculated based on the procedure of Samuni and Barenholz [Samuni A. M. and Barenholz Y, Biol. Med. 22:1165–1174 (1996); Barenholz Y. et al. M. Biophys. J. 59:110–124 (1991)]. The following Table 4 summarizes the results obtained.
# [4] = system: CD-1 Mice; assay: Oxazolone induced ear edema; format: in vivo; details: topical on left ear 1 hour after 2% oxazolone challenge, ear punch weight after 24 hours, versus vehicle group
# Protocol: CD-1 Mice were induced with 3% oxazolone (Sigma) (30 mg/ml) made up in corn oil: acetone on a shaved abdomen. Five days later the mice were challenged with a 2% oxazolone (20 (mg/ml) in acetone on the left ear, right ear was untreated. One hour after challenging, the formulations examined (E1–E8) in a 70% EtOH/30% propylene glycol vehicle were applied onto the left ear. After 24 hours the mice were sacrificed and 7 mm ear punches were taken. The ear punches were placed on a scale and the difference between the treated and untreated ears was measured.
# The percent inhibition was calculated by comparing the means of each group to the vehicle group. The positive control was hydrocortisone.
# [5] = Solubility of lycopene in organic solvents (saturation concentration, HPLC and absorbance at 472 nm)
# Protocol: Lycopene Quantification—lycopene was analyzed for degradation and quantified by The HPLC buffer used comprised acetonitrile: methanol: methylene chloride: hexane and a ratio of 850:100:25:25 (all HPLC grade, Hoffman La Roche). Quantification was based on a standard curve obtained for lycopene (LycoRed standard. The amount of lycopene was also determined by absorbance at 472 nm.
# All samples were diluted with ethanol before measurement. The saturation concentrations of the lycopene were determined by BPLC and by the use of a spectrophotometer (absorbance at 472 nm, where the area under the peak was measured). The saturation limit was defined as the concentration where a precipitate first appears. The concentration of lycopene at saturation was determined after removal of precipitate by high speed centrifugation from the absorbance at 472 nm (the λmax for the ‘red’ form of lycopene) using double beam UVikon 860 (Kontron, Switzerland) spectrometer.
# Both types of lycopene were in a powder form before dissolving in cyclohexane. […] These measures were taken after a year and a half of storage at −20° C.
# [6] = Entrapment of lycopene in MLV liposomes; format: physicochemical; details: liposomes composed of lipid/lycopene 10:1
# Protocol: Method of Preparation—The phospholipids were dissolved in cyclohexane at a w/v ratio of 1 mg phospholipid per 10 ml cyclohexane. The dissolving required heating for several seconds at 60° C. and/or sonication for up to 3 minutes. Lycopene was added as powder to the solution, which was then vortexed. The resulting solution was lyophilized overnight and kept at −20° C. until use. To form multilamellar liposome (MLV), 2 ml of 0.9% NaCl were added to the lyophilizate followed by vortex to yield MLV encapsulated lycopene.
# Method of Preparation—Lycopene was dissolved in cyclohexane at a w/v ratio of 1 mg of lycopene per 2 ml of cyclohexane. The dissolving required heating for several seconds at 60° C. and sonication for up to 3 minutes until all the lycopene was dissolved. The phospholipids were added as powder to the solution and the mixture was mixed with vortex. The solution was lyophilized overnight in bottles and closed in vacuum. The lyophilized bottles were kept at −20° C. until use.
# To form MLV encapsulated lycopene, 2 ml of 0.9% NaCl were added followed by vortex. The percentage of entrapment of lycopene in the formulation was 85.31%.
# In general, the population of the liposomes was heterogeneous. […] The 75% lycopene entrapment in liposomes composed of lipid/lycopene 10:1 was measured, wherein 17.5% of the lycopene was entrapped in the MLV. […]
structure (smiles),measurement,setting,value
"O=C(O)CCCC[C@@H]1CCSS1 (racemic) [Lipoic Acid, lipoic acid]","Loss of viability (LDH), LDH release, protection","[1]; at 1%, UV irradiation (Table 7C)",100% protection with 1%
"O=C1O[C@H]([C@@H](O)CO)C(O)=C1O [Ascorbic acid, ascorbic acid]","LDH Release, protection, First assay","[1]; at 0.01%, UV irradiation",100% protection with 0.01%
same,"IL-1α release, protection, First assay",[2],100% protection with 0.01%
"CC(C)=CCC/C(C)=C/C=C/C(C)=C/C=C/C(C)=C/C=C/C=C(C)/C=C/C=C(C)/C=C/C=C(\C)CCC=C(C)C [Crystalline, lycopene, reference compound]",Kp Lip/Oil,[3],0.00952
same,Liposome/oil,[3],0.00095
same,Insoluble lycopene,[3],6.9740 mμ
same,"lycopene concentration, Liposomal phase",[3],0.0001 mμ
same,"lycopene concentration, Oil phase",[3],0.1458 mμ
"C[C@]12CCC(=O)C=C1CC[C@@H]1[C@@H]2[C@@H](O)C[C@@]2(C)[C@H]1CC[C@]2(O)C(=O)CO [Hydrocortisone, hydrocortisone]",% inhibition,[4],92.6%
"CC(C)=CCC/C(C)=C/C=C/C(C)=C/C=C/C(C)=C/C=C/C=C(C)/C=C/C=C(C)/C=C/C=C(\C)CCC=C(C)C [Power 92% Powder, lycopene]",Kp Lip/Oil,[3],0.4141
same,Liposome/oil,[3],0.0414
same,Insoluble lycopene,[3],6.7084 mμ
same,"lycopene concentration, Liposomal phase",[3],0.0020 mμ
same,"lycopene concentration, Oil phase",[3],0.0495 mμ
"CC(C)=CCC/C(C)=C/C=C/C(C)=C/C=C/C(C)=C/C=C/C=C(C)/C=C/C=C(C)/C=C/C=C(\C)CCC=C(C)C [lycopene 75%, lycopene]",maximal solubility in cyclohexane,[5]; after a year and a half of storage at −20° C.,1960 µM
same,Concentration (mM)/HPLC,[5]; saturation in Cyclohexane,0.22 mM
same,Concentration (mM)/HPLC,[5]; saturation in Soy oil,0.14 mM
same,Concentration (mM)/HPLC,[5]; saturation in ethanol,0.059 mM
same,Concentration (mM)/HPLC,[5]; saturation in i-propanol,0.037 mM
same,Concentration (mM)/HPLC,[5]; saturation in n-hexane,0.18 mM
same,Concentration (mM)/HPLC,[5]; saturation in t-butanol,0.016 mM
same,Kp Lip/Oil,[3]; listed as Powder 75%,0.4972
same,Liposome/oil,[3]; listed as Powder 75%,0.0497
same,Insoluble lycopene,[3]; listed as Powder 75%,5.7899 mμ
same,"lycopene concentration, Liposomal phase",[3]; listed as Powder 75%,0.0062 mμ
same,"lycopene concentration, Oil phase",[3]; listed as Powder 75%,0.1239 mμ
same,lycopene entrapped in the MLV,[6],17.5%
"CC(C)=CCC/C(C)=C/C=C/C(C)=C/C=C/C(C)=C/C=C/C=C(C)/C=C/C=C(C)/C=C/C=C(\C)CCC=C(C)C [lycopene 95%, lycopene]",solubility,"[5]; cyclohexane, organic solvent or mixture, thermodynamic from solid, maximal solubility in cyclohexane, after a year and a half of storage at −20° C.",2650 µM
CC(C)=CCC/C(C)=C/C=C/C(C)=C/C=C/C(C)=C/C=C/C=C(C)/C=C/C=C(C)/C=C/C=C(\C)CCC=C(C)C [lycopene],solubility in an aqueous phase,[3]; conclusion from tri-phase system,"very low, if any"

# Reference: patent publication US7048943B2, “Carotenoid-loaded liposomes” (Yissum Research Development Company of the Hebrew …, priority 2001, dated 2006)
